Test results reported in ChEMBL document CHEMBL3797072, “Discovery of Potent, Selective, and Orally Bioavailable Small-Molecule Modulators of the Mediator Complex-Associated Kinases CDK8 and CDK19” (J Med Chem, 2016).
In brackets after ≈: the same amount, converted by molar mass.

Experiments:
[1] = in vivo; conditions: mouse, plasma
[2] = in vivo; conditions: mouse, faeces
[3] = in vivo; conditions: mouse, plasma; remark: listed apart in the source
[4] = in vivo; conditions: mouse, faeces; remark: listed apart in the source
[5] = in vivo; conditions: NMRI, mouse
[6] = in vivo; conditions: Beagle, dog
[7] = in vitro; conditions: rat, microsomes
[8] = in vitro; conditions: mouse, microsomes
[9] = in vitro; conditions: human, microsomes
[10] = physchem
[11] = in vivo; conditions: Wistar, rat
[12] = physchem; remark: listed apart in the source

| Structure (SMILES) | clearance [1] [mL/min/kg] | dose excreted [2] [%] | clearance [3] [mL/min/kg] | dose excreted [4] [%] | solubility thermodynamic [10] [µg/mL] | also measured |
| --- | --- | --- | --- | --- | --- | --- |
| Cn1cc(-c2ccc(-c3cncc(Cl)c3N3CCC4(CCNC4=O)CC3)cc2)cn1 | 39 | 9.1 | 38.3 | < 1 | 6 (≈ 14.2 µM) | half-life [5]: 33 min; half-life [6]: 42 min; microsomal CLint [7]: 54 µL/min/mg; microsomal CLint [8]: 141 µL/min/mg; microsomal CLint [9]: 84 µL/min/mg |
| CN1c2ccc(-c3cnc(N)c(F)c3N3CCC4(CCNC4=O)CC3)cc2CS1(=O)=O | – | – | – | – | 29 (≈ 65.1 µM) | – |
| Cn1cc(-c2ccc(-c3cnc(N)c(Cl)c3N3CCC4(CC3)CNC(=O)O4)cc2)cn1 | 43.2 | 17 | 47.3 | < 1 | – | – |
| Cn1cc(-c2ccc(-c3cnc(N)c(Cl)c3N3CCC4(CCNC4=O)CC3)cc2)cn1 | – | – | – | – | 2 (≈ 4.58 µM) | – |
| Cn1ncc2cc(-c3cnc(N)c(Cl)c3N3CCC4(CCNC4=O)CC3)ccc21 | – | – | – | – | 40 (≈ 97.3 µM) | half-life [5]: 46.8 min; half-life [11]: 66 min; half-life [6]: 59.4 min |
| CC(C)(O)Cn1cc(-c2ccc(-c3cnc(N)c(Cl)c3N3CCC4(CCNC4=O)CC3)cc2)cn1 | – | – | – | – | < 1 | – |
| Cn1cc(-c2ccc(-c3cnc(N)c(C(F)(F)F)c3N3CCC4(CC3)CNC(=O)O4)cc2)cn1 | – | – | – | – | 1 (≈ 2.12 µM) | – |
| Cn1cc(-c2ccc(-c3cncc(Cl)c3N3CCC4(CC3)NCNC4=O)cc2)cn1 | – | – | – | – | 47 (≈ 111 µM) | – |
| COCCN1CCCC12CCN(c1c(Cl)cncc1-c1ccc3c(c1)CS(=O)(=O)N3C)CC2 | – | – | – | – | 248 (≈ 505 µM) | – |
| CN1c2ccc(-c3cnc(N)c(Cl)c3N3CCC4(CC3)CNC(=O)O4)cc2CS1(=O)=O | 68 | 20 | 47.5 | < 1 | – | – |
| Cn1ncc2cc(-c3cnc(N)c(Cl)c3N3CCC4(CC3)CNC(=O)O4)ccc21 | – | – | – | – | 3 (≈ 7.27 µM) | – |
| CN1c2ccc(-c3cncc(Cl)c3N3CCC4(CC3)CNC(=O)O4)cc2CS1(=O)=O | 81.5 | 18 | 66.7 | < 1 | 17 (≈ 37.9 µM) | – |
| Cn1cc(-c2ccc(-c3cncc(Cl)c3N3CCC4(CC3)NC(=O)CNC4=O)cc2)cn1 | 73.8 | 67 | 37 | 24 | – | – |
| Cn1cc(-c2ccc(-c3cncc(Cl)c3N3CCC4(CC3)CNC(=O)O4)cc2)cn1 | – | – | – | – | 3 (≈ 7.08 µM) | – |
| CC(C)n1ncc2cc(-c3cnc(N)c(Cl)c3N3CCC4(CCNC4=O)CC3)ccc21 | – | – | – | – | – | microsomal CLint [7]: 139 µL/min/mg; microsomal CLint [8]: 202 µL/min/mg; microsomal CLint [9]: 202 µL/min/mg; solubility kinetic [12]: 126 µM (≈ 55.3 µg/mL) |
